“Also recorded” adds a separate entry of the source. Peptide text beside a SMILES is read from it.
Test system: persistent sodium current (I NaP) from MSNs in the nucleus accumbens
Assay: Brain slice voltage-clamp: persistent Na^+ current (I NaP) in MSNs
Type: cell-based, male C57BL6/J mice
Method: Brain slices from male C57BL6/J mice aged 28–45 days were prepared to contain the nucleus accumbens (NAc). Mice were anesthetized with Isoflurane (Baxter, Deerfield, IL) and brains extracted following decapitation. Brains were sliced with a vibratome (Leica Microsystems, Wetzlar, Germany) to achieve 300 μm coronal slices. Brains sliced in extracellular salts; consisting of the following (mM): Tris‐HCl 72, Tris‐Base18, NaH2PO4 1.2, KCl 2.5, HEPES 20, sucrose 20, NaHCO3 25, glucose 25, MgSO4 10, Na‐pyruvate 3, Na‐ascorbate 5 and CaCl2 0.5 (Sigma‐Aldrich, St. Louis, MO); 300–310 mOsm, pH 7.4 and was continuously oxygenated (mixture of 95%/5% O2/CO2). […] Evoked action potentials with a range of current injections from 10 pA to 220 pA with 800 ms every 10 pA were measured and number of action potentials, instantaneous frequency, and other electrical parameters were determined. […] The voltage‐dependence of I NaP was determined using standard protocols (Yue, Remy, Su, Beck, & Yaari, 2005). […] Membrane capacitance was calculated using the equation: capacitance = membrane time constant/input resistance (Meitzen, Weaver, Brenowitz, & Perkel, 2009). The membrane input resistance was measured by a series of 600 ms hyperpolarizing current steps from −50 to 0 pA, step 10 pA with 1 s interval. […]

For CC(=O)N[C@@H](Cc1ccccc1)C(=O)N[C@@H](CC(C)C)C(=O)N1CCC[C@H]1C(=O)N[C@@H](CCCCN)C(N)=O [FLPK] (Ac-FLPK-NH2), the “effect on I NaP” value (50 µM FLPK vs 0.1% DMSO) was “increase in persistent sodium current; also recorded: potentiated persistent Na^+ currents” and the “persistent sodium current (I NaP)” value (50 µM FLPK, slow voltage ramps (50 mV/s), TTX-subtracted, control 111.4 ± 15.7 pA, p < .03, n = 14) was −158.2 ± 14.2 pA.

Reference: PMC7363588, “Mapping of the FGF14:Nav1.6 complex interface reveals FLPK as a functionally active peptide modulating excitability” (Physiological Reports, 2020)
